Test results taken from article PMC7687371, “Quantitative in Vitro to in Vivo Extrapolation (QIVIVE) for Predicting Reduced Anogenital Distance Produced by Anti-Androgenic Pesticides in a Rodent Model for Male Reproductive Disorders” (Environmental Health Perspectives, 2020).
pIC50: −log10 of the molar value. Where two headings read alike, the source gives them in different places.

How the values were obtained:
[1] = Fetal chemical exposure analysis (LC-QTOF) at GD21; type: in vivo, rat
Outline: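 Rat dams killed at GD21; pooled fetal trunk plasma (by sex, per litter, ~90 min post-dose) and amniotic fluid stored at −80 °C. Samples extracted with acetonitrile (C-18 cleanup) and analysed by positive-ESI LC-QTOF; quantified from (M+H)+ extracted-ion chromatograms ±0.005 Da against matrix-matched plasma standards.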

NCI-H295R cells = experiment: H295R steroidogenesis assay; type: cell-based, human; settings: for Effect on androgen (steroid) synthesis, in words: H295R steroidogenesis assay; for IC50: read-out: Testosterone inhibition (IC50, μM); for IC20: read-out: Testosterone inhibition (IC20 µM)
Outline: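 Human adrenocortical NCI-H295R cells exposed 48 h to compounds in 2-fold dilutions from 0.8 to 50 μM (0.1% DMSO), three independent experiments. Ten steroid hormones in medium measured by LC-MS/MS and normalized to solvent controls; viability checked by MTT.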

pregnant dams and pups = settings: ref EFSA's Draft Assessment Reports (DARs); cited from earlier work
[2] = design: method as in U.S. EPA 2012; settings: EPI Suite, experimental preferred over modeled; ref U.S. EPA 2012; cited from earlier work
[3] = PBK model first-order kinetic parameters fitted to in vivo ADME data; design: species or system rat; settings: PBK model parameter; for Metabolism rate in liver, Total (L/h) KMetab: metabolic clearance

For `COc1ccc(C(=CC(=O)N2CCOCC2)c2ccc(Cl)cc2)cc1OC` [Dimethomorph, dimethomorph], the “Measured concentration in male fetuses” value ([1]; fetal plasma GD21, dams dosed 20 mg/kg BW per day (Study 3)) was 1.35 µM, the “Androstenedione (relative to controls), mean” value (NCI-H295R cells; 0.8 µM) was 0.83 and the “Testosterone (relative to controls), mean” value (NCI-H295R cells; 0.8 µM) was 0.88. For the same compound, the “Androstenedione (relative to controls), mean” value (NCI-H295R cells; 1.6 µM) was 0.81, the “Testosterone (relative to controls), mean” value (NCI-H295R cells; 1.6 µM) was 0.84 and the “Androstenedione (relative to controls), mean” value (NCI-H295R cells; 3.1 µM) was 0.80. For the same compound, the “Testosterone (relative to controls), mean” value (NCI-H295R cells; 3.1 µM) was 0.76, the “Androstenedione (relative to controls), mean” value (NCI-H295R cells; 6.3 µM) was 0.89 and the “Testosterone (relative to controls), mean” value (NCI-H295R cells; 6.3 µM) was 0.74. For the same compound, the “Androstenedione (relative to controls), mean” value (NCI-H295R cells; 12.5 µM) was 0.77, the “Testosterone (relative to controls), mean” value (NCI-H295R cells; 12.5 µM) was 0.68 and the “Androstenedione (relative to controls), mean” value (NCI-H295R cells; 25 µM) was 0.70. For the same compound, the “Testosterone (relative to controls), mean” value (NCI-H295R cells; 25 µM) was 0.73, the “Androstenedione (relative to controls), mean” value (NCI-H295R cells; 50 µM) was 0.67 and the “Testosterone (relative to controls), mean” value (NCI-H295R cells; 50 µM) was 0.67. The “Effect on androgen (steroid) synthesis, in words” value (“Effect on androgen” for short) (NCI-H295R cells) was “inhibited testosterone synthesis”, the IC50 (NCI-H295R cells; Homo sapiens, NCI-H295R, 48 h) was over 50 µM and the IC20 (NCI-H295R cells; Homo sapiens, NCI-H295R) was 2.8 µM. For the same compound, the “Corticosterone, LOEC” value (NCI-H295R cells; multiple contrast tests) was 0.8 µM, the “DHEA, LOEC” value (NCI-H295R cells; multiple contrast tests) was 25 µM and the “Estradiol, LOEC” value (NCI-H295R cells; multiple contrast tests) was 0.8 µM. For the same compound, the “OH-Progesterone, LOEC” value (NCI-H295R cells; multiple contrast tests) was 12.5 µM, the Critical toxicity (pregnant dams and pups) was “Reduced maternal and pup body weight, reduced gestation length” and the “LOAEL (mg/kg bw)” value (pregnant dams and pups) was 67 mg/kg bw. For the same compound, the “NOAEL (mg/kg bw)” value (pregnant dams and pups) was 20 mg/kg bw, the “log Kow” value [2] was 2.68 and the “Fecal excretion rate from gut (L/h) KFeces” value (shortened to “Fecal excretion rate from gut”) [3] was 2 L/h. For the same compound, the “Portal GI absorption rate into liver (L/h) KAS” value [3] was 1 L/h, the “Urine excretion rate from kidney (L/h) KUrine” value (“Urine excretion rate” for short) [3] was 0.01 L/h and the “Metabolism rate in liver, Total (L/h) KMetab” value [3] was 0.3 L/h.
With `N#Cc1c[nH]cc1-c1cccc2c1OC(F)(F)O2` [Fludioxonil, fludioxonil] the “Measured concentration in male fetuses” value ([1]; fetal plasma GD21, dams dosed 60 mg/kg BW per day (Study 3)) was 3.3 µM, the “Effect on androgen” value (NCI-H295R cells) was “inhibited testosterone synthesis” and the pIC50 (NCI-H295R cells; Homo sapiens, NCI-H295R cells, 48 h, NA = not active up to 50μM, read-out: Testosterone inhibition (IC50)) was 4.97. The IC20 (NCI-H295R cells; Homo sapiens, NCI-H295R cells) was 1.3 µM, the “Androstendione, LOEC” value (NCI-H295R cells; multiple contrast tests) was 25 µM and the “Corticosterone, LOEC” value (NCI-H295R cells; multiple contrast tests) was 12.5 µM. The “Estradiol, LOEC” value (NCI-H295R cells; multiple contrast tests) was 3.1 µM, the “OH-Progesterone, LOEC” value (NCI-H295R cells; multiple contrast tests) was 3.1 µM and the “Testosterone, lowest observed effect concentration (LOEC)” value (NCI-H295R cells; multiple contrast tests) was 1.6 µM. For the same compound, the Critical toxicity (pregnant dams and pups) was “Reduced maternal and pup BW”, the “LOAEL (mg/kg bw)” value (pregnant dams and pups) was 212 mg/kg bw and the “NOAEL (mg/kg bw)” value (pregnant dams and pups) was 21 mg/kg bw. For the same compound, the “log Kow” value [2] was 4.12, the “Fecal excretion rate from gut” value [3] was 3 L/h and the “Portal GI absorption rate into liver (L/h) KAS” value [3] was 1 L/h. The “Urine excretion rate” value [3] was 0.01 L/h and the “Metabolism rate in liver, Total (L/h) KMetab” value [3] was 0.3 L/h.
With `CC12CC1(C)C(=O)N(c1cc(Cl)cc(Cl)c1)C2=O` (centres unmarked) [Procymidone, procymidone, reference compound] the “Measured concentration in male fetuses” value ([1]; male, Sprague-Dawley, rat, in vivo, 40 mg/kg/day) was 7.8 µM, the “Effect on androgen” value (NCI-H295R cells) was “inhibited the synthesis of androgens” and the IC50 (NCI-H295R cells; Homo sapiens, NCI-H295R, 48 h) was 6 µM. The “log Kow” value [2] was 3.08, the “Fecal excretion rate from gut” value [3] was 0.04 L/h and the “Urine excretion rate” value [3] was 0.08 L/h.
